Patent US20140017223A1, “Pharmaceutical Compositions Comprising A Pancreatic Enzyme Preparation With Viral Infectivity Reduced Below A Significant Level And Methods Of Preparing And Using The Same” (Aptalis Pharma Canada Inc., priority 2010, published 2014)

Key:
PPV [1] = assay: Inactivation of PPV by BPL in higher concentration of PEP (200 mg/ml), time course, thiosulfate quench (Example 5); type: cell-based, porcine parvovirus (PPV); conditions: 200 mg PEP/ml
Procedure: The focus of this experiment was to measure the effect of increased PEP concentration on the efficiency of the inactivation procedure and to evaluate lower concentration ranges of BPL.
PPV virus stock (prepared using standard protocols (Arella et al., Physicochemical properties, production, and purification of parvoviruses. 1990, In Tijssen, P. (ed.), CRC handbook of parvoviruses. Boca Raton, Fla.: CRC Press, 11-30)) was diluted with water and this solution (containing 1.42×10^10 FFID50 PPV viruses) was used to suspend the 0.5 gram of PEP powder to yield a final concentration of 200 mg PEP/ml.
Tubes were incubated for one hour at 25° C. before the addition of BPL. BPL was added either directly to the PEP solution (for a final concentration of 0.4 vol. %) or it was first diluted ten and hundred times for final concentrations of 0.04 vol. % and 0.004 vol. %, respectively. After the addition of BPL, the solution was further mixed and incubated at 25° C. for a predetermined period (1, 2, 4, 6, or 8 hours). A sodium thiosulfate solution was freshly prepared on the day of each inactivation experiments. After the period expired for the BPL inactivation, sodium thiosulfate was added to the PEP solution, mixed intensively and incubated at least 6 hours at 4° C. to quench the excess BPL. After this step the infectivity titration experiments as described in U.S. Patent Publication No. 2009/0226414 were performed. All experiments were done using three parallel samples for each time point.

PPV [2] = assay: Inactivation of spiked PPV in pancrelipase (PEP) by BPL, PPV titered by dilution method (Example 1); type: cell-based, porcine parvovirus (PPV); conditions: 48 h, 20° C.; for Detected PPV Titer: 0*=below detection limit of 10^3 FFID50/g
Procedure: For example, two preparations can be tested for PPV or another virus on one 96-well plate, with the positive controls incubated on another parallel plate. For PPV the samples can be serially diluted (for example, 1:4 in each step for a total of 8 dilutions) in cell culture medium prior to application and incubated with cell cultures for at least 5 days at 37° C. in 5% CO2. After sample removal and the fixation of the cells by paraformaldehyde, the presence of PPV (or other) virus infection is monitored in each well by an anti-PPV antibody using a standard immunofluorescent assay. The number of wells that contain positively stained cells are recorded in a table. Fluorescence Focus Infectious Doses (FFID50) are calculated according to the Karber formula: […]
All data are recalculated for 1-gram dry PEP, e.g., pancrelipase, sample after the consideration of processed sample volumes and dilutions. In certain embodiments, the assay is repeated several times using six parallel wells to quantify the level of infectious viruses.
Pancrelipase powders from 2 different lots were each dissolved in 100 mM Tris, pH=8.3, at a concentration of 100 mg/ml. Two ml non-purified PPV viral stock (prepared using standard protocols (Arella et al., Physicichemical properties, production, and purification of parvoviruses. 1990, In Tijssen, P. (ed.), CRC handbook of parvoviruses. Boca Raton, Fla.: CRC Press, 11-30)) were added to 38 ml of the pancrelipase solution. The virus was mixed with the PEP using slow shaking at room temperature for one day. Aliquots were taken from the PPV-spiked pancrelipase stocks and each was incubated with different concentrations of BPL (available from Sigma-Aldrich, St. Louis, Mo.) (except the control) for 48 hours at room temperature (20° C.). The level of viral inactivation was measured by the titration of PPV infectivity using serial dilutions of 1,000 times or more since the titer of spiked virus was high. Determination of the FFID50 was performed using the fluorescence assay as described in the PPV FFID-infectivity assay of U.S. Patent Publication No. 2009/0226414.

With O=C1CCO1 [BPL, Beta-propiolactone] the “Detected PPV titer average” value (PPV [1]; 0.004% BPL, 1 hr at 25° C.) was 8.13 × 10^9 FFID50/g, the Log10 of inactivation (PPV [1]; 0.004% BPL, 1 hr at 25° C.) was 0.4 Log10 and the “Detected PPV titer average” value (PPV [1]; 0.004% BPL, 2 hr at 25° C.) was 5.96 × 10^9 FFID50/g. For the same molecule, the Log10 of inactivation (PPV [1]; 0.004% BPL, 2 hr at 25° C.) was 0.6 Log10, the “Detected PPV titer average” value (PPV [1]; 0.004% BPL, 4 hr at 25° C.) was 5.86 × 10^9 FFID50/g and the Log10 of inactivation (PPV [1]; 0.004% BPL, 4 hr at 25° C.) was 0.58 Log10. The “Detected PPV titer average” value (PPV [1]; 0.004% BPL, 6 hr at 25° C.) was 6.65 × 10^9 FFID50/g, the Log10 of inactivation (PPV [1]; 0.004% BPL, 6 hr at 25° C.) was 0.53 Log10 and the “Detected PPV titer average” value (PPV [1]; 0.004% BPL, 8 hr at 25° C.) was 6.68 × 10^9 FFID50/g. For the same molecule, the Log10 of inactivation (PPV [1]; 0.004% BPL, 8 hr at 25° C.) was 0.53 Log10, the “Detected PPV titer average” value (PPV [1]; 0.04% BPL, 1 hr at 25° C.) was 4.01 × 10^9 FFID50/g and the Log10 of inactivation (PPV [1]; 0.04% BPL, 1 hr at 25° C.) was 0.7 Log10. The “Detected PPV titer average” value (PPV [1]; 0.04% BPL, 2 hr at 25° C.) was 2.06 × 10^9 FFID50/g, the Log10 of inactivation (PPV [1]; 0.04% BPL, 2 hr at 25° C.) was 1.0 Log10 and the “Detected PPV titer average” value (PPV [1]; 0.04% BPL, 4 hr at 25° C.) was 1.54 × 10^9 FFID50/g. The Log10 of inactivation (PPV [1]; 0.04% BPL, 4 hr at 25° C.) was 1.2 Log10, the “Detected PPV titer average” value (PPV [1]; 0.04% BPL, 6 hr at 25° C.) was 7.66 × 10^8 FFID50/g and the Log10 of inactivation (PPV [1]; 0.04% BPL, 6 hr at 25° C.) was 1.5 Log10. The “Detected PPV titer average” value (PPV [1]; 0.04% BPL, 8 hr at 25° C.) was 4.91 × 10^8 FFID50/g, the Log10 of inactivation (PPV [1]; 0.04% BPL, 8 hr at 25° C.) was 1.7 Log10 and the “Detected PPV titer average” value (PPV [1]; 0.4% BPL, 1 hr at 25° C.) was 3.06 × 10^7 FFID50/g. The Log10 of inactivation (PPV [1]; 0.4% BPL, 1 hr at 25° C.) was 2.8 Log10, the “Detected PPV titer average” value (PPV [1]; 0.4% BPL, 2 hr at 25° C.) was 8.69 × 10^6 FFID50/g and the Log10 of inactivation (PPV [1]; 0.4% BPL, 2 hr at 25° C.) was 3.4 Log10. For the same molecule, the “Detected PPV titer average” value (PPV [1]; 0.4% BPL, 4 hr at 25° C.) was 2.13 × 10^6 FFID50/g, the Log10 of inactivation (PPV [1]; 0.4% BPL, 4 hr at 25° C.) was 4.0 Log10 and the “Detected PPV titer average” value (PPV [1]; 0.4% BPL, 6 hr at 25° C.) was 3.26 × 10^5 FFID50/g. For the same molecule, the Log10 of inactivation (PPV [1]; 0.4% BPL, 6 hr at 25° C.) was 4.8 Log10, the “Detected PPV titer average” value (PPV [1]; 0.4% BPL, 8 hr at 25° C.) was 1.69 × 10^5 FFID50/g and the Log10 of inactivation (PPV [1]; 0.4% BPL, 8 hr at 25° C.) was 5.1 Log10. For the same molecule, the “PPV Titer reduction” value (PPV [2]; PEP #1, 0.1% (v/v) BPL) was 2.37 × 10^3 FFID50/g, the “Detected PPV Titer” value (PPV [2]; PEP #1, 0.1% (v/v) BPL) was 4.22 × 10^4 FFID50/g and the “PPV Titer reduction” value (PPV [2]; PEP #1, 0.2% (v/v) BPL) was >10^5 FFID50/g. For the same molecule, the “Detected PPV Titer” value (PPV [2]; PEP #1, 0.2% (v/v) BPL) was < 0* FFID50/g, the “PPV Titer reduction” value (PPV [2]; PEP #1, 0.4% (v/v) BPL) was >10^5 FFID50/g and the “Detected PPV Titer” value (PPV [2]; PEP #1, 0.4% (v/v) BPL) was < 0* FFID50/g. For the same molecule, the “PPV Titer reduction” value (PPV [2]; PEP #1, 0.8% (v/v) BPL) was >10^5 FFID50/g, the “Detected PPV Titer” value (PPV [2]; PEP #1, 0.8% (v/v) BPL) was < 0* FFID50/g and the “PPV Titer reduction” value (PPV [2]; PEP #2, 0.1% (v/v) BPL) was 2.37 × 10^3 FFID50/g. For the same molecule, the “Detected PPV Titer” value (PPV [2]; PEP #2, 0.1% (v/v) BPL) was 4.22 × 10^4 FFID50/g, the “PPV Titer reduction” value (PPV [2]; PEP #2, 0.2% (v/v) BPL) was >10^5 FFID50/g and the “Detected PPV Titer” value (PPV [2]; PEP #2, 0.2% (v/v) BPL) was < 0* FFID50/g. The “PPV Titer reduction” value (PPV [2]; PEP #2, 0.4% (v/v) BPL) was >10^5 FFID50/g, the “Detected PPV Titer” value (PPV [2]; PEP #2, 0.4% (v/v) BPL) was < 0* FFID50/g and the “PPV Titer reduction” value (PPV [2]; PEP #2, 0.8% (v/v) BPL) was >10^5 FFID50/g. For the same molecule, the “Detected PPV Titer” value (PPV [2]; PEP #2, 0.8% (v/v) BPL) was < 0* FFID50/g, the “PPV Titer reduction” value (PPV [2]; PEP #3, 0.1% (v/v) BPL) was 4.22 × 10^3 FFID50/g and the “Detected PPV Titer” value (PPV [2]; PEP #3, 0.1% (v/v) BPL) was 5.62 × 10^4 FFID50/g. The “PPV Titer reduction” value (PPV [2]; PEP #3, 0.2% (v/v) BPL) was >10^5 FFID50/g, the “Detected PPV Titer” value (PPV [2]; PEP #3, 0.2% (v/v) BPL) was < 0* FFID50/g and the “PPV Titer reduction” value (PPV [2]; PEP #3, 0.4% (v/v) BPL) was >10^5 FFID50/g. For the same molecule, the “Detected PPV Titer” value (PPV [2]; PEP #3, 0.4% (v/v) BPL) was < 0* FFID50/g, the “PPV Titer reduction” value (PPV [2]; PEP #3, 0.8% (v/v) BPL) was >10^5 FFID50/g and the “Detected PPV Titer” value (PPV [2]; PEP #3, 0.8% (v/v) BPL) was < 0* FFID50/g. The “PPV Titer reduction” value (PPV [2]; PEP #4, 0.1% (v/v) BPL) was 1.33 × 10^8 FFID50/g, the “Detected PPV Titer” value (PPV [2]; PEP #4, 0.1% (v/v) BPL) was < 0* FFID50/g and the “PPV Titer reduction” value (PPV [2]; PEP #4, 0.2% (v/v) BPL) was >10^5 FFID50/g. For the same molecule, the “Detected PPV Titer” value (PPV [2]; PEP #4, 0.2% (v/v) BPL) was < 0* FFID50/g, the “PPV Titer reduction” value (PPV [2]; PEP #4, 0.4% (v/v) BPL) was >10^5 FFID50/g and the “Detected PPV Titer” value (PPV [2]; PEP #4, 0.4% (v/v) BPL) was < 0* FFID50/g. For the same molecule, the “PPV Titer reduction” value (PPV [2]; PEP #4, 0.8% (v/v) BPL) was >10^5 FFID50/g and the “Detected PPV Titer” value (PPV [2]; PEP #4, 0.8% (v/v) BPL) was < 0* FFID50/g.
